From PubChem BioAssay (NCI)
Several values for one entry are separate records, joined by “and”; a condition that tells them apart may be missing. Equal values may be shown once.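 Values below derive from 48-hour exposures of cells grown in 96-well plates, with endpoints linearly interpolated between the two concentrations bracketing the appropriate inhibition level. GI50: concentration for 50% inhibition of growth. TGI: total growth inhibition.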

What was measured:
Assay in all cases: NCI tumour cell line growth inhibition, 48 h
M14 melanoma = system: M14 melanoma
A498 renal = system: A498 renal
SK-MEL-28 melanoma = system: SK-MEL-28 melanoma
T-47D breast = system: T-47D breast
IGROV1 ovarian = system: IGROV1 ovarian
MDA-MB-435 = system: MDA-MB-435
HOP-62 NSCLC = system: HOP-62 NSCLC
OVCAR-8 ovarian = system: OVCAR-8 ovarian
SR leukemia = system: SR leukemia
CCRF-CEM leukemia = system: CCRF-CEM leukemia

## CC/C(=C(/c1ccc(OCCN(C)C)cc1)c1ccc(OC(=O)CCCCCCCCC(=O)c2c(C)[nH]c(/C=C3\N=C(c4ccc[nH]4)C=C3OC)c2C)cc1)c1ccccc1
M14 melanoma
  GI50: 2.15 µM
  TGI: 4.48 µM
A498 renal
  GI50: 15 µM
  TGI: 72 µM
SK-MEL-28 melanoma
  GI50: 43.9 µM
  TGI: > 100 µM
T-47D breast
  GI50: 3.56 µM
  TGI: > 100 µM
IGROV1 ovarian
  GI50: 23.1 µM
  TGI: > 100 µM
MDA-MB-435
  GI50: 4.63 µM
  TGI: > 100 µM
HOP-62 NSCLC
  GI50: 17 µM
  TGI: > 100 µM
OVCAR-8 ovarian
  GI50: 9.06 µM
  TGI: > 100 µM
SR leukemia
  GI50: 4.1 µM
  TGI: > 100 µM
CCRF-CEM leukemia
  GI50: 0.768 µM
  TGI: > 100 µM

## Cn1c(=O)c(Oc2ccc(F)cc2F)cc2cnc(NCC(C)(C)O)nc21
M14 melanoma
  GI50: > 25 µM
  TGI: > 25 µM
A498 renal
  GI50: > 25 µM
  TGI: > 25 µM
SK-MEL-28 melanoma
  GI50: > 25 µM
  TGI: > 25 µM
T-47D breast
  GI50: > 25 µM
  TGI: > 25 µM
IGROV1 ovarian
  GI50: > 25 µM
  TGI: > 25 µM
MDA-MB-435
  GI50: > 25 µM
  TGI: > 25 µM
HOP-62 NSCLC
  GI50: > 25 µM
  TGI: > 25 µM
OVCAR-8 ovarian
  GI50: > 25 µM
  TGI: > 25 µM
SR leukemia
  GI50: > 25 µM
  TGI: > 25 µM
CCRF-CEM leukemia
  GI50: > 25 µM
  TGI: > 25 µM

## NC(=O)c1csc(-c2ccc(CO)o2)n1
M14 melanoma
  TGI: > 100 µM
A498 renal
  TGI: > 100 µM
SK-MEL-28 melanoma
  TGI: > 100 µM
T-47D breast
  TGI: > 100 µM
IGROV1 ovarian
  TGI: > 100 µM
MDA-MB-435
  TGI: > 100 µM
OVCAR-8 ovarian
  TGI: > 100 µM
SR leukemia
  TGI: > 100 µM

## O=C(/C=C/C=C/c1ccc2c(c1)OCO2)N/N=C\c1ccc(O)cc1O
M14 melanoma
  GI50: 1.67 µM
  TGI: 11.5 µM
A498 renal
  GI50: 2.07 µM
  TGI: 7.15 µM
SK-MEL-28 melanoma
  GI50: 2.97 µM
  TGI: 19.6 µM
T-47D breast
  GI50: 2.55 µM
  TGI: 24 µM
IGROV1 ovarian
  GI50: 2.23 µM
  TGI: 14.3 µM
MDA-MB-435
  GI50: 4.35 µM
  TGI: 19 µM
HOP-62 NSCLC
  GI50: 1.61 µM
  TGI: 15.7 µM
OVCAR-8 ovarian
  GI50: 2.67 µM
  TGI: 29.9 µM
SR leukemia
  GI50: 0.571 µM
  TGI: > 100 µM
CCRF-CEM leukemia
  GI50: 0.559 µM
  TGI: 17.9 µM

## CC(=O)Nc1cc2c3c(cccc3c1)-c1ccccc1-2
M14 melanoma
  GI50: > 100 µM
  TGI: > 100 µM
A498 renal
  GI50: 11.6 µM
  TGI: 28.6 µM
SK-MEL-28 melanoma
  GI50: > 100 µM
  TGI: > 100 µM
T-47D breast
  GI50: 37.3 µM
  TGI: > 100 µM
IGROV1 ovarian
  GI50: 24.2 µM
  TGI: > 100 µM
MDA-MB-435
  GI50: 30 µM
  TGI: > 100 µM
HOP-62 NSCLC
  GI50: 22.7 µM
  TGI: 69.5 µM
OVCAR-8 ovarian
  GI50: 45.9 µM
  TGI: > 100 µM
SR leukemia
  GI50: 28.6 µM
  TGI: > 100 µM
CCRF-CEM leukemia
  GI50: 0.992 µM
  TGI: > 100 µM

## Cc1cnc(-c2ccc(-c3ccc(NC(=O)Nc4c(F)cc(F)cc4F)cc3F)c3c2C(=O)NC3)[nH]1
M14 melanoma
  GI50: 0.0392 µM and 0.211 µM
  TGI: 1.99 µM and 17.1 µM
A498 renal
  GI50: 6.48 µM and 2.13 µM
  TGI: 24.3 µM and 14.9 µM
SK-MEL-28 melanoma
  GI50: 1.16 µM and 0.642 µM
  TGI: 9.69 µM and 5.48 µM
T-47D breast
  GI50: 2.98 µM and 12.6 µM
  TGI: 20.5 µM and 47.5 µM
IGROV1 ovarian
  GI50: 0.824 µM and 1.31 µM
  TGI: 6.63 µM and 18.8 µM
MDA-MB-435
  GI50: 0.483 µM
  TGI: 4.29 µM
HOP-62 NSCLC
  TGI: 3.07 µM and 11 µM
OVCAR-8 ovarian
  GI50: 1.25 µM and 2.08 µM
  TGI: 3.77 µM and 9.45 µM
SR leukemia
  GI50: 0.0294 µM and < 0.01 µM
CCRF-CEM leukemia
  TGI: > 100 µM

## Cc1cc(-c2cc(OC(=O)c3ccccc3)ccc2Cl)cc2nnc(Nc3ccc(OCCN4CCCC4)cc3)nc12
M14 melanoma
  GI50: 1.64 µM
  TGI: 3.24 µM
A498 renal
  GI50: 9.84 µM
SK-MEL-28 melanoma
  GI50: 1.5 µM
  TGI: 2.93 µM
T-47D breast
  GI50: 1.57 µM
  TGI: 3.55 µM
IGROV1 ovarian
  GI50: 1.76 µM
  TGI: 3.78 µM
MDA-MB-435
  GI50: 1.62 µM
  TGI: 3.02 µM
HOP-62 NSCLC
  GI50: 1.55 µM
  TGI: 3.27 µM
OVCAR-8 ovarian
  GI50: 1.7 µM
  TGI: 3.67 µM
SR leukemia
  GI50: 0.46 µM
  TGI: 2.48 µM

## CC[C@@H](C)/C=C(C)/C=C/C(=O)c1c(O)c(-c2ccc(O)cc2)cn(OC2CC(=O)CCC(C)OC(=O)CC2O)c1=O (stereo not given in full)
M14 melanoma
  GI50: 0.258 µM
  TGI: 2.38 µM
A498 renal
  GI50: 1.98 µM
  TGI: 24 µM
SK-MEL-28 melanoma
  GI50: 0.552 µM
  TGI: 19.5 µM
T-47D breast
  GI50: 0.383 µM
  TGI: 15.3 µM
IGROV1 ovarian
  GI50: 0.316 µM
  TGI: 4.66 µM
MDA-MB-435
  GI50: 0.485 µM
  TGI: 19 µM
HOP-62 NSCLC
  GI50: 0.356 µM
  TGI: 12.9 µM
OVCAR-8 ovarian
  GI50: 0.354 µM
  TGI: 22.8 µM
SR leukemia
  GI50: 0.21 µM
  TGI: 1.27 µM
CCRF-CEM leukemia
  GI50: 0.163 µM
  TGI: 12.6 µM

## COc1ccc(/C=C\c2cc(OC)c(OC)c(OC)c2)c(NS(=O)(=O)c2ccc(F)cc2)c1O
M14 melanoma
  GI50: 0.0326 µM
  TGI: > 100 µM
A498 renal
  GI50: 0.0235 µM
  TGI: 0.0966 µM
SK-MEL-28 melanoma
  GI50: 0.484 µM
  TGI: > 100 µM
T-47D breast
  GI50: 38.5 µM
  TGI: > 100 µM
IGROV1 ovarian
  GI50: 0.212 µM
  TGI: > 100 µM
MDA-MB-435
  GI50: 0.0204 µM
  TGI: 0.0515 µM
HOP-62 NSCLC
  GI50: 0.61 µM
  TGI: > 100 µM
OVCAR-8 ovarian
  GI50: 0.128 µM
  TGI: > 100 µM
SR leukemia
  GI50: 0.041 µM
  TGI: > 68.1 µM
CCRF-CEM leukemia
  GI50: 0.0435 µM
  TGI: > 100 µM

## COC(=O)c1cccc(NC(=O)c2ccc(NC3=C(Cl)C(=O)N(Cc4ccccc4)C3=O)cc2)c1
M14 melanoma
  GI50: 9.75 µM
  TGI: 23 µM
A498 renal
  GI50: 26.3 µM
  TGI: 73 µM
SK-MEL-28 melanoma
  GI50: 15.2 µM
  TGI: 52 µM
T-47D breast
  GI50: 4.46 µM
  TGI: 63.3 µM
IGROV1 ovarian
  GI50: 0.176 µM
  TGI: 3.34 µM
MDA-MB-435
  GI50: 14.3 µM
  TGI: 34.2 µM
HOP-62 NSCLC
  GI50: 15.1 µM
  TGI: 35.4 µM
OVCAR-8 ovarian
  GI50: 11.4 µM
  TGI: 32.1 µM
SR leukemia
  GI50: 1.87 µM
  TGI: 7.56 µM

## C=CC(=O)N1CCC[C@@H](n2nc(-c3ccc(Oc4ccccc4)cc3)c3c(N)ncnc32)C1
M14 melanoma
  GI50: > 7.36 µM
  TGI: > 10 µM
A498 renal
  GI50: 0.46 µM
  TGI: > 5.51 µM
SK-MEL-28 melanoma
  GI50: > 10 µM
  TGI: > 10 µM
T-47D breast
  GI50: 0.0945 µM
  TGI: > 10 µM
IGROV1 ovarian
  GI50: 0.418 µM
  TGI: > 10 µM
MDA-MB-435
  GI50: > 10 µM
  TGI: > 10 µM
HOP-62 NSCLC
  GI50: > 10 µM
  TGI: > 10 µM
OVCAR-8 ovarian
  GI50: > 8.16 µM
  TGI: > 10 µM
SR leukemia
  GI50: > 10 µM
  TGI: > 10 µM
CCRF-CEM leukemia
  GI50: > 10 µM
  TGI: > 10 µM

## Fc1ccc(Nc2nc3nonc3nc2Nc2ccc(I)cc2)cc1
M14 melanoma
  GI50: 0.289 µM
  TGI: 2.86 µM
A498 renal
  GI50: 0.227 µM
  TGI: 0.708 µM
SK-MEL-28 melanoma
  GI50: 0.34 µM
  TGI: 4.63 µM
T-47D breast
  GI50: 0.228 µM
  TGI: 0.892 µM
IGROV1 ovarian
  GI50: 0.217 µM
  TGI: 13.3 µM
MDA-MB-435
  GI50: 0.276 µM
  TGI: 10.8 µM
HOP-62 NSCLC
  GI50: 0.344 µM
  TGI: 1.92 µM
OVCAR-8 ovarian
  GI50: 0.312 µM
  TGI: 12.8 µM
SR leukemia
  GI50: 0.252 µM
  TGI: 1.91 µM
CCRF-CEM leukemia
  GI50: 0.22 µM
  TGI: 4.47 µM
